Results reported in US6696484B2, “Method and compositions for regulation of 5-alpha reductase activity” (University of Chicago Office of Technology and Intellectual …, priority 1997, dated 2004).
Several values for one entry are separate records, joined by “and”; a condition that tells them apart may be missing. Equal values may be shown once. Read-outs that look alike come from different tables or passages of the source.

Legend:
hamster flank organ [1] = assay: Testosterone-stimulated growth of the pigmented macules of hamster flank organs; type: in vivo, Syrian golden hamsters; details: for Pigmented macule area / Inhibition (percent decrease in macule area vs androgen-treated macules) / Pigmented macule area, androgen alone (control): 18 days; for Pigmented macule area / Pigmented macule area, androgen alone (control): mean±SEM; for Pigmented macule area, androgen alone (control): 0.5 μg testosterone alone topically daily;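 on all read-outs here: prepubertal Syrian golden hamsters castrated at 4 weeks, ethanol vehicle on one flank organ, macule long and short axes gauged by caliper 1 day after final dose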
5α-reductase [2] = details: Liao and Hiipakka 1995, cited from earlier work; for activity against 5α-reductase, in vitro enzyme assay: at 200 μM; for IC50: read-out: IC50, 5α-reductase, in vitro enzyme assay
5α-reductase [3] = assay: Cell-free 5α-reductase assay, isozyme not given; type: biochemical, human; details: isozyme not stated
5α-reductase [4] = assay: Whole-cell 5α-reductase assay, isozyme not given; type: cell-based, human; details: isozyme not stated
Excerpt: Intact cells containing 5α-reductase, their microsomes, or nuclear preparations can also be used to screen 5α-reductase inhibitors.

hamster flank organ [5] = assay: DHT-stimulated growth of the pigmented macules of hamster flank organs; type: in vivo, Syrian golden hamsters; details: 0.5 μg DHT + 1 mg compound topically daily, 18 days; for Pigmented macule area: mean±SEM
Description: Prepubertal male Syrian golden hamsters, castrated at 4 weeks of age, were obtained from Harlan Sprague-Dawley Co. (Madison, Wis.). Bilateral orchiectomy was performed under anesthesia. The hamsters were housed individually in plastic cages and had free access to Purina rodent chow and water, and were maintained on a 12-h light/12-h dark cycle. Hamsters were used 1-2 weeks after castration and were divided into groups of 4-6 or 9-11 animals. Hair on the lower back of each animal was shaved weekly with an electric hair clipper to expose the flank organs. A treatment solution (5 μl with ethanol as vehicle) was applied topically to the flank organ once a day using a Pipetteman and a polypropylene disposable tip. The treatment solution contained either (a) ethanol alone, (b) an androgen (testosterone or DHT), (c) a test compound, or (d) a combination of an androgen and a test compound. For each hamster, one flank organ was treated while the other organ was not treated. The surface of the flank organ was wiped with an alcohol pad to remove residual compound before each treatment. At the end of each experiment (18 days), animals were killed by CO2 asphyxiation or an intraperitoneal injection of […]. Flank organs from both the treated and untreated sides were examined 1 day after the last treatment by the methods described below. The body weight of each animal was recorded before and after treatment. Experiments were repeated at least twice to assure reproducibility. The “Guide for the care and use of laboratory animals” (NIH publication no. 85-28, revised 1988) and the regulations of the U.S. Department of Agriculture were followed throughout the experiments.
In this study, the growth of the flank organ was determined by measuring the length of the long axis and the short axis of the pigmented spot (pigmented macule) with a caliper with a digital display (Digimatic; Mitutoyo Corporation, Japan). The surface area (in millimeters squared) of the spot was calculated as the product of the long axis and the short axis (Gomez and Frost 1975). The areas of the pigmented spots after treatment with ethanol alone or with test compound (in ethanol) alone were less than 10% of the areas of the pigmented spots after treatment with testosterone alone. These values were deducted from the experimental values and are compared in Tables 8-10. For each experiment, the means and standard error of the means (SEM) of the areas of the untreated and treated macules were computed separately for each treatment group. Within each experiment, an overall F-test (one way ANOVA) was used to test the null hypothesis that the mean sizes of the treated macules were the same in all groups, and Dunnett's multiple range test was used to examine differences between the treatment groups (i.e., green tea catechin+androgen, fatty acid+androgen, EGC derivative+androgen, or fatty acid derivative+androgen) and the control group (androgen treatment only). The Mann-Whitney test was used to examine differences between DHT-treated and the DHT and EGCG-treated groups. P-values <0.05 were taken as indicating statistical significance in all tests (Hochberg and Tamhane 1987).
Each group comprised four to six castrated male hamsters. At the end of the treatment period, the areas of the pigmented macules were determined and are presented as means±SEM in Table 8.
Each group comprised four to six castrated male hamsters. At the end of the treatment period, the areas of the pigmented macules were determined and are expressed as means±SEM as shown in Table 10.

5α-reductase [6] = assay: In vitro enzyme assay of 5α-reductase referred to in the discussion; type: biochemical; details: Hiipakka and Liao, unpublished results
[7] = target: T1, 5α-reductase type 1 isozyme (Homo sapiens, UniProt P18405); details: read-out: Km for testosterone, type 1 isozyme; background statement; cited from earlier work
T1 sequence (P18405 1-259): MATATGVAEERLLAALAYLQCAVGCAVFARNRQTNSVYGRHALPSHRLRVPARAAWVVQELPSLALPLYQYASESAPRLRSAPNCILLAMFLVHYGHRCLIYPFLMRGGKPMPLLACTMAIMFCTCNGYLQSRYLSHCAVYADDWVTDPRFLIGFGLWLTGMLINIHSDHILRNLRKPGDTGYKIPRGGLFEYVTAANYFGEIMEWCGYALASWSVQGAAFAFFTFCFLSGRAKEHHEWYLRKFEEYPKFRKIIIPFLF

[8] = target: T2, 5α-reductase type 2 isozyme (Homo sapiens, UniProt P31213); details: cited from earlier work
T2 sequence (P31213 1-254): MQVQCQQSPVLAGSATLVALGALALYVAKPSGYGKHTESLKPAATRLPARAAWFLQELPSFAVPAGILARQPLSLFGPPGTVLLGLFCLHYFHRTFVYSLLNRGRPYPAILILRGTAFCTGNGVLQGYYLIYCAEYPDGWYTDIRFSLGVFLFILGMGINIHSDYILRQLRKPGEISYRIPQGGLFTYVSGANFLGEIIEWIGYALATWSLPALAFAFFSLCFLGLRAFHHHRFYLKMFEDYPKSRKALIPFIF

LNCaP 104-R2 tumors = assay: Growth of LNCaP 104-R2 tumors in castrated male nude mice; type: in vivo, BALB/c athymic (nude) mice; details: finasteride (2.5 mg) pellets at 7th week in mice with TP since 4th week, from 84±15 (SE) mm^3
LNCaP 104-S tumors = assay: Growth of LNCaP 104-S tumors in nude mice; type: in vivo, BALB/c athymic (nude) mice; details: finasteride treatment, normal nude mice, within 4 weeks
MCF-7 tumors = assay: Growth of MCF-7 tumors in female nude mice; type: in vivo, BALB/c athymic (nude) mice
[9] = target: T3, type 2 human 5α-reductase (Homo sapiens, UniProt P31213); assay: Whole-cell assay of 5α-reductase, type 2; type: cell-based; design: expressed in transfected cells; host or cells: rat 1A cells infected with pMV7 retrovirus and selected with G418; intact cells for the whole-cell assay; details: read-out: percent inhibition of 5α-reductase activity, whole-cell assay, Type 2; 100 μM compound
T3 sequence (P31213 1-254): T2 sequence (P31213 1-254)

[10] = Stability (half-life, oxidation or hydrolysis) in culture medium, buffers and solutions; type: physicochemical
Excerpt: These green tea catechins had little inhibitory activity against 5α-reductase in whole cells. The lack of activity in whole cells may be due to an inability of these catechins to cross the cell membrane or to enzymatic or non-enzymatic changes in the structure of these catechins in assays using whole-cell cultures.
Active 5α-reductase inhibitors shown in Tables 1-7 are polyphenols or their derivatives and are easily oxidized or hydrolyzed within several hours to several days, especially in the presence of air or oxygen and at a pH above 7.0. […] More than 80% of the oxidation of hydrolysis can be prevented by the addition of an inorganic acid, such as hydrochloric acid, sulfuric acid, or phosphoric acid, or an organic acid, such as citric acid or acetic acid.

[11] = target: T4, type 1 human 5α-reductase (Homo sapiens, UniProt P18405); assay: Cell-free enzymatic assay of 5α-reductase (testosterone to DHT), type 1
T4 sequence (P18405 1-259): T1 sequence (P18405 1-259)

[12] = target: T3, type 2 human 5α-reductase; assay: Cell-free enzymatic assay of 5α-reductase (testosterone to DHT), type 2; type: biochemical; design: expressed in transfected cells; host or cells: rat 1A cells infected with pMV7 retrovirus and selected with G418; microsomes for the cell-free assay
[13] = 0.5 μg testosterone + 1 mg compound topically daily, castrated male hamsters
[14] = 0.5 μg testosterone + 1 mg compound topically daily
[15] = 0.5 μg testosterone + 2 mg compound topically daily
[16] = cell-free assay, double-reciprocal plots

Oc1cc(O)c2c(c1)O[C@H](c1cc(O)c(O)c(O)c1)[C@H](O)C2 [EGC, epigallocatechin]
Pigmented macule area (hamster flank organ [1]; [13]): 10.75 ± 0.87 mm^2 and 5.50 ± 0.65 mm^2
activity against 5α-reductase, in vitro enzyme assay (5α-reductase [2]): not active

Oc1ccccc1O [Catechol, 1,2-dihydroxybenzene]
inhibitory activity in the cell-free assay (5α-reductase [3]): weak inhibitory activity
inhibitory activity in the whole-cell assay (5α-reductase [4]): weak inhibitory activity

O=C1c2ccccc2C(=O)c2c1ccc(O)c2O [Alizarin]
Inhibition (percent decrease in macule area vs androgen-treated macules) (hamster flank organ [1]; [14]): 87%
Pigmented macule area (hamster flank organ [1]; [13]): 2.40 ± 0.47 mm^2
Inhibition (percent decrease in macule area vs androgen-treated macules) (hamster flank organ [5]): 27%
Pigmented macule area (hamster flank organ [5]): 10.00 ± 0.43 mm^2
IC50 (5α-reductase [6]): 5 to 10 µM

CCCCC/C=C\C/C=C\C/C=C\CCCCC(=O)O[C@H]1CC[C@@]2(C)C(=CC[C@H]3[C@@H]4CC[C@H]([C@H](C)CCCC(C)C)[C@@]4(C)CC[C@@H]32)C1 [cholesterol ester of γ-linolenic acid]
IC50 (5α-reductase [3]): > 100 µM
IC50 (5α-reductase [4]): > 100 µM
inhibitory activity in the whole-cell assay (5α-reductase [4]): little activity

O=C(O)c1cc(O)c(O)c(O)c1 [gallic acid, 3,4,5-trihydroxybenzoic acid]
inhibitory activity in the cell-free assay (5α-reductase [3]): weak inhibitory activity
inhibitory activity in the whole-cell assay (5α-reductase [4]): weak inhibitory activity

CCCCC/C=C\C/C=C\C/C=C\CCCCC(=O)OC [Methyl ester of γ-linolenic acid]
IC50 (5α-reductase [3]): > 100 µM
IC50 (5α-reductase [4]): > 100 µM
inhibitory activity in the whole-cell assay (5α-reductase [4]): little activity

C[C@]12CC[C@H]3[C@@H](CCC4=CC(=O)CC[C@@]43C)[C@@H]1CC[C@@H]2O [T, testosterone, reference compound]
Pigmented macule area, androgen alone (control) (hamster flank organ [1]): 13.83 ± 1.43 mm^2 and 17.40 ± 1.93 mm^2 and 18.65 ± 0.69 mm^2
Pigmented macule area, androgen alone (control) (hamster flank organ [1]; listed as testosterone): 15-20 mm^2
stimulation of flank organ growth relative to the maximum stimulation (hamster flank organ [1]; 0.5 μg testosterone per flank organ per day): 50-70%
Km [7]: > 1 µM
Km ([8]; read-out: Km for testosterone, type 2 isozyme, background statement): < 0.01 µM

CC(C)(C)NC(=O)[C@H]1CC[C@H]2[C@@H]3CC[C@H]4NC(=O)C=C[C@]4(C)[C@H]3CC[C@]12C [Finasteride]
LNCaP 104-R2 tumor size within 4 weeks after finasteride implantation (LNCaP 104-R2 tumors): 593±144 mm^3
reduction of LNCaP 104-S tumor size (LNCaP 104-S tumors): 45%
effect on growth of MCF-7 tumors (MCF-7 tumors): did not affect
affinity for isozyme 2 relative to isozyme 1 ([8]; competitive inhibitor, Russell and Wilson, 1994): 30 fold

Oc1cccc(O)c1O [Pyrogallol, 1,2,3-trihydroxybenzene]
inhibitory activity in the cell-free assay (5α-reductase [3]): weak inhibitory activity
inhibitory activity in the whole-cell assay (5α-reductase [4]): weak inhibitory activity
inhibition at 100 µM [9]: 15%

O=C(O[C@@H]1Cc2c(O)cc(O)cc2O[C@@H]1c1cc(O)c(O)c(O)c1)c1cc(O)c(O)c(O)c1 [EGCG, epigallocatechin gallate]
half-life in culture medium ([10]; culture medium used for whole-cell assays (pH 7.5), mean±SEM, N=3): 9.5 ± 0.5 min
difference in stability, phosphate buffer vs culture medium ([10]; pH 7.0 vs pH 7.5): 8 fold
half-life in phosphate buffered saline ([10]; pH 7.5): 21.2 ± 2.0 min
half-life in phosphate buffer ([10]; phosphate buffer used for cell-free assays (pH 7.0), mean±SEM, N=3): 74.7 ± 6.4 min
Inhibition (percent decrease in macule area vs androgen-treated macules) (hamster flank organ [1]; [14]): 40% and 64%
Pigmented macule area (hamster flank organ [1]; [13]): 8.25 ± 1.43 mm^2 and 6.25 ± 0.82 mm^2
Inhibition (percent decrease in macule area vs androgen-treated macules) (hamster flank organ [1]; [15]): 60%
Pigmented macule area (hamster flank organ [1]; [15]): 5.62 ± 0.75 mm^2
Inhibition (percent decrease in macule area vs androgen-treated macules) (hamster flank organ [5]): 97%
Pigmented macule area (hamster flank organ [5]): 0.50 ± 0.26 mm^2
IC50 (5α-reductase [2]): 10 to 20 µM
reversibility of inhibition after pelleting and resuspending microsomes ([11]; 100 μM EGCG): could not be reversed
mode of inhibition with respect to the substrate NADPH [11, 16]: competitive inhibitor
mode of inhibition with respect to the substrate testosterone [11, 16]: non-competitive inhibitor

Oc1cc(O)c2c(c1)O[C@H](c1ccc(O)c(O)c1)[C@H](O)C2 [EC, epicatechin]
Inhibition (percent decrease in macule area vs androgen-treated macules) (hamster flank organ [1]; [14]): 37%
Pigmented macule area (hamster flank organ [1]; [13]): 8.67 ± 1.08 mm^2
activity against 5α-reductase, in vitro enzyme assay (5α-reductase [2]): not active

O=C(O[C@@H]1Cc2c(O)cc(O)cc2O[C@@H]1c1ccc(O)c(O)c1)c1cc(O)c(O)c(O)c1 [ECG, epicatechin gallate]
Inhibition (percent decrease in macule area vs androgen-treated macules) (hamster flank organ [1]; [14]): 59%
Pigmented macule area (hamster flank organ [1]; [13]): 5.75 ± 0.57 mm^2
IC50 (5α-reductase [2]): 10 to 20 µM
IC50 [12]: 69 µM
